Source: PubChem BioAssay AID2060908 (Molecular Pharmacology Branch, DTP, NCI, 2025)

System: 186277-243-T-J2-PDC complex spheroids, viability
Assay: Anticancer human tumor 186277-243-T-J2-PDC patient-derived colon adenocarcinoma cell line growth inhibition [RAS]
Conditions: for IC50: curve of first compound; for viability, T/C: stronger effect = lower value
Text: RAS pathway inhibitors in Combinations in Complex Spheroids
A high-throughput screen of multi-cell type tumor spheroids was designed to identify active combinations of RAS pathway inhibitors and targeted small molecules. Complex spheroids include a stromal component modeled by human endothelial cells (HUVEC) and fibroblasts modeled by human mesenchymal stem cells (MSCs). The concentration ranges selected for each drug and investigational agent were based upon clinically achievable concentrations if the clinical Cmax of the agent was known.
Compounds. The drugs and investigational agents: abemaciclib (NSC768073), cobimetinib (NSC768068), divarasib (GDC6063, NSC841802), docetaxel (NSC628503), GDC-1971 (RLY-1971, NSC841576), gemcitabine (NSC613327), inavolisib (NSC800729), ipatasertib (NSC767898), KB-0742 (NSC834161), MRTX-1133 (NSC836407), osimertinib (NSC779217), RMC-4630 (NSC839698), RMC-6236 (NSC851965), RMC-6291 (NSC852671), Ro-3306 (NSC812927), sapanisertib (NSC764658), SN-38 (NSC673596), staurosporine (NSC755774), SY5609 (NSC837396), and tovorafenib (DAY101, NSC766906), were obtained from the National Cancer Institute (NCI) Developmental Therapeutics Program Chemical Repository. The FDA-approved anticancer drug set is available from the NCI Developmental Therapeutics Program. […] The stock solutions were prepared in dimethyl sulfoxide (DMSO, Sigma-Aldrich, St. Louis, MO, cat. D2650) at 800-fold the tested concentration and stored at -70 degrees C prior to their use. All drugs and investigational agents were tested over a range starting from a high concentration at or near the clinical Cmax and decreasing in half-log increments. If the clinical Cmax for an agent had not been determined, the highest concentration tested was 10 microM.
Cell Culture. All cells were maintained in an incubator at 37 degrees C and 5% CO2 with 95% humidity. The PDC lines were cultured according to standard operating procedures established by the NCI PDMR. All PDCs were thawed and cultured in Matrigel-coated flasks prepared with a working solution of 1X Ham's F-12 nutrient mix, without supplementation (Invitrogen, Waltham, MA, cat. 11765054), 100 U/mL penicillin-streptomycin (Invitrogen, cat. 15140122), and 2.5% Matrigel (Corning Inc., Corning, NY, cat. 354248) for the first three passages. The 362531-283-R-J2-PDC and 782815-120-R-J1-PDC lines were cultured in 6C/Colon 1B media, which includes advanced DMEM/F-12 (Thermo Fisher Scientific, cat. 12634028), 10 mM HEPES (Thermo Fisher Scientific, cat. 15630080), 1X GlutaMAX supplement (Thermo Fisher Scientific, cat. 35050061), 0.1 mg/mL primocin (InvivoGen, San Diego, CA, cat. ant-pm-2), 10% defined fetal bovine serum, heat inactivated (HyClone Laboratories Inc., Logan, UT, cat. SH30070.03HI), 50% L-WRN conditioned media (ATCC, cat. CRL-3276), 1.25 mM N-Acetyl-L-cysteine (Sigma-Aldrich, cat. A9165), 10 mM nicotinamide (Sigma-Aldrich, cat. N0636), 1X B-27 supplement (Thermo Fisher Scientific, cat. 17504044), 1X N-2 supplement (Thermo Fisher Scientific, cat. 17502048), 50 ng/mL human EGF (Thermo Fisher Scientific, cat. PHG0311), and 10 microM Y-27632 dihydrochloride (Tocris Bioscience, cat. 1254). The K12877-001-R-J1-PDC line was cultured in 6I media, which includes all 6C/Colon 1B media plus 10 ng/mL human FGF-10 (PeproTech, cat. 100-26), 1 ng/mL human FGF-2 (PeproTech, cat. 100-18B), 1 µM prostaglandin E2 (Tocris Bioscience, cat. 2296), […] hydrocortisone (Sigma-Aldrich, cat. H4001), and […] bovine insulin (Sigma-Aldrich, cat. I6634). The K86415-001-R-J1-PDC line was cultured in 6D media, which includes all 6C/Colon 1B media components minus the L-WRN conditioned media. The 485176-168-R4-J1-PDC was cultured in PANC media, which includes all 6C/Colon 1B media plus 100 ng/mL human FGF-10 (PeproTech, cat. 100-26), 500 nM SB-431542 (Selleckchem, cat. S1067), and 10 nM gastrin (Tocris Bioscience, cat. 3006). […]
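Also: spheroids exposed to compounds for 7 days before viability read.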

With `CC1(O)CCCC1n1c(=O)c(C(F)F)cc2cnc(NC3CCN(S(C)(=O)=O)CC3)nc21` (configuration not stated) + C#Cc1c(F)ccc2cc(O)cc(-c3ncc4c(N5CC6CCC(C5)N6)nc(OCC56CCCN5CC(F)C6)nc4c3F)c12 the IC50 (second compound 0.0316 µM) was 0.57 µM, the IC50 (second compound 0.1 µM) was 0.104 µM and the IC50 (second compound 0.316 µM) was < 0.0316 µM. For the same compound, the IC50 (second compound 1 µM) was < 0.0316 µM, the IC50 (second compound 3.16 µM) was < 0.0316 µM and the IC50 (second compound 10 µM) was < 0.0316 µM. The viability, T/C (second compound 0.0316 µM, first compound 0.0316 µM) was 71.2%, the viability, T/C (second compound 0.0316 µM, first compound 0.1 µM) was 69.4% and the viability, T/C (second compound 0.0316 µM, first compound 0.316 µM) was 47.3%. It also gave a viability, T/C (second compound 0.0316 µM, first compound 1 µM) of 43.7%, a viability, T/C (second compound 0.0316 µM, first compound 3.16 µM) of 33.4% and a viability, T/C (second compound 0.0316 µM, first compound 10 µM) of 1.2%. The viability, T/C (second compound 0.1 µM, first compound 0.0316 µM) was 65.4%, the viability, T/C (second compound 0.1 µM, first compound 0.1 µM) was 50.3% and the viability, T/C (second compound 0.1 µM, first compound 0.316 µM) was 31.8%. The viability, T/C (second compound 0.1 µM, first compound 1 µM) was 27.8%, the viability, T/C (second compound 0.1 µM, first compound 3.16 µM) was 20.9% and the viability, T/C (second compound 0.1 µM, first compound 10 µM) was 0.42%. For the same compound, the viability, T/C (second compound 0.316 µM, first compound 0.0316 µM) was 23.6%, the viability, T/C (second compound 0.316 µM, first compound 0.1 µM) was 23.3% and the viability, T/C (second compound 0.316 µM, first compound 0.316 µM) was 17%. It also gave a viability, T/C (second compound 0.316 µM, first compound 1 µM) of 16.9%, a viability, T/C (second compound 0.316 µM, first compound 3.16 µM) of 11.4% and a viability, T/C (second compound 0.316 µM, first compound 10 µM) of 0.33%. It also gave a viability, T/C (second compound 1 µM, first compound 0.0316 µM) of 15.6%, a viability, T/C (second compound 1 µM, first compound 0.1 µM) of 13.1% and a viability, T/C (second compound 1 µM, first compound 0.316 µM) of 10%. The viability, T/C (second compound 1 µM, first compound 1 µM) was 12.4%, the viability, T/C (second compound 1 µM, first compound 3.16 µM) was 10.8% and the viability, T/C (second compound 1 µM, first compound 10 µM) was 0.24%. For the same compound, the viability, T/C (second compound 3.16 µM, first compound 0.0316 µM) was 11.4%, the viability, T/C (second compound 3.16 µM, first compound 0.1 µM) was 12.1% and the viability, T/C (second compound 3.16 µM, first compound 0.316 µM) was 9.69%. It also gave a viability, T/C (second compound 3.16 µM, first compound 1 µM) of 8.93%, a viability, T/C (second compound 3.16 µM, first compound 3.16 µM) of 9.39% and a viability, T/C (second compound 3.16 µM, first compound 10 µM) of 0.27%. The viability, T/C (second compound 10 µM, first compound 0.0316 µM) was 9.74%, the viability, T/C (second compound 10 µM, first compound 0.1 µM) was 8.08% and the viability, T/C (second compound 10 µM, first compound 0.316 µM) was 9.05%. It also gave a viability, T/C (second compound 10 µM, first compound 1 µM) of 8.95%, a viability, T/C (second compound 10 µM, first compound 3.16 µM) of 8.58% and a viability, T/C (second compound 10 µM, first compound 10 µM) of 0.36%.
